Test results taken from patent publication US11433090B2, “mTOR-inhibitor-containing medicine for treating or preventing ophthalmic symptoms, disorders, or diseases, and application thereof” (The Doshisha, priority 2017, dated 2022).

Experiments:
[1] = tested on: iFECD; assay: Cell damage induced by TGF-β2 in iFECD, phase contrast microscopy; assay type: cell-based, human; details: 3 pmol mTOR siRNA with Lipofectamine, then TGF-β2 10 ng/ml 24 h, FIG. 7
Experimental: (§1) The medium was removed from a culture dish in which iFECDs were being cultured, and the cells were supplemented with 1×PBS (−) that was preheated to 37° C., and were washed. This was repeated twice. The cells were supplemented again with 1×PBS (−) and incubated for 3 minutes at 37° C. (5% CO2). After removing the PBS (−), the cells were supplemented with 0.05% Trypsin-EDTA (Nacalai Tesque, 32778-34) and incubated for 5 minutes at 37° C. (5% CO2). The cells were then suspended in a medium, and collected by centrifugation at 1500 rpm for 3 minutes. DMEM (Nacalai Tesque, 08456-36)+10% FBS (Biowest, S1820-500)+1% P/S (Nacalai Tesque, 26252-94) was used as the medium.
iFECDs were seeded on a 12-well plate at a ratio of 1×10^5 cells per well and cultured for 24 hours at 37° C. (5% CO2) (DMEM+10% FBS+1% P/S was used as the medium). After 24 hours, the medium was removed. Rapamycin was added to culture the cells for 24 hours. (DMEM+2% FBS+1% P/S was used as the medium). After 24 hours, the medium was removed. A medium containing 10 ng/ml of Recombinant Human TGF-β2 (Wako, 200-19911) and rapamycin was added to culture the cells for 24 hours. (DMEM+2% FBS+1% P/S was used as the medium). After 24 hours, the cell morphology and apoptosis were observed under a phase contrast microscope.
iFECDs were seeded on a 12-well plate at a ratio of 3×10^4 cells per well and cultured for 24 hours at 37° C. […]

[2] = tested on: mTOR; assay: mTOR expression at protein level in iFECD (western blot); assay type: cell-based, human; details: 3 pmol mTOR siRNA, FIG. 6
Experimental: as §1
iFECDs were seeded on a 12-well plate at a ratio of 3×10^4 cells per well and cultured for 24 hours at 37° C. (5% CO2) (medium: DMEM+10% FBS+1% P/S). After 24 hours, the medium was removed. Lipofectamine (invitrogen, 92008) and 3 pmol of mTOR siRNA (Ambion, AS026M0L) were added to culture the cells for 24 hours (medium: OptiMEM-I (invitrogen, 31985-088)). The mTOR siRNA that was used has a sense strand set forth in SEQ ID NO: 1 and an antisense strand set forth in SEQ ID NO: 2. […]
5 μg of the extracted protein was separated by SDS-PAGE and transferred onto a nitrocellulose membrane. […] The detected band strength was analyzed with a lumino image analyzer LAS-4000 mini (Fuji Film) and ImageQuant™ software (GE Healthcare).

mTOR siRNA: siRNA against mTOR gene (Ambion, AS026M0L); sense strand SEQ ID NO: 1, antisense strand SEQ ID NO: 2 (sense CAUUCGCAUUCAGUCCAUATT; antisense UAUGGACUGAAUGCGAAUGAT; chemistry not given here)
damage to corneal endothelial cells induced by Recombinant Human TGF-β2 [1]: suppressed
mTOR expression, protein level (western blot) [2]: suppression was found
